Where “and” joins values, the source holds several entries; their conditions need not be identical. Equal entries are not always repeated. Entries after “also recorded” stand apart in the source; their conditions may differ. Marks after values point to notes of the source that are not given here.
Assay: Toxicity assessment (CTCAE version 4): treatment-related AEs, DLTs, dose reductions, RP2D; phase 1 NANT2015-02
Details: for Toxicity Maximum Grade per patient: Sinus tachycardia / Toxicity Maximum Grade per patient: Neutrophil count decreased: CTCAE grade
Description: Five DLs (45, 60, 75, 95 and 115 mg/m^2/dose) were assessed in A1, using a 3 + 3 design. […] Myeloid growth factor was given 24 hours after the completion of topotecan/cyclophosphamide on B2, according to institutional standards. Instructions and hands-on training for a tablet dispersion formulation, validated by Pfizer, was provided to families of patients who could not swallow tablets.
Initially, this was the only DL planned, but, with a subsequent amendment, a second DL was added to cohort A2 (150 mg). […] Finally, because of the nature of the patients in cohort A2 (which had only two planned DLs), an expansion of up to six additional patients was planned for the highest DL tested with zero or one DLT in six DLT-evaluable patients. Accrual could continue in the expansion cohort as long as none, or at most one, of the patients experienced DLT in the DLT observation period; if two or more patients experienced DLT in the DLT observation period, this would lead to a discussion of the suitability of this dose. The probability of observing […] with DLT, out of six patients, is 0.11, 0.22, 0.47, 0.68 and 0.77 when the true probability of DLT is 0.10, 0.15, 0.25, 0.35 and 0.40, respectfully.
Patients who were not evaluable for DLT were replaced for dose-escalation purposes. […] The MTD was defined as the highest DL tested at which zero of six or one of six patients experience DLT. After determination of the MTD and review of all toxicities, and provided that other safety considerations were acceptable, the MTD was labeled the RP2D.
Toxicity was graded according to CTCAE version 4. DLT definitions included only toxicities deemed at least possibly related to therapy. For A1 and A2, hematologic DLT was defined as grade 4 thrombocytopenia or grade 4 neutropenia >7-day duration or a delay in the start of subsequent course by more than 14 days due to ongoing thrombocytopenia or neutropenia, in the absence of bone marrow disease progression seen on clinically indicated bone marrow biopsy (if performed). For cohort B2, hematological DLT is defined as a delay in the start of subsequent course by more than 14 days due to ongoing thrombocytopenia or neutropenia, in the absence of bone marrow disease progression seen on clinically indicated bone marrow biopsy after the first dose reduction of cyclophosphamide and topotecan. Non-hematologic DLT was defined as any non-hematologic toxicity that delayed the start of a subsequent cycle by more than 14 days or any grade ≥3 toxicity, with the exception of the following grade 3 toxicities: nausea, vomiting, anorexia or dehydration resolving to grade ≤2 within 72 hours; increase in hepatic transaminase or electrolyte abnormality resolving eligibility levels within 7 days; diarrhea persisting for less than 72 hours; fever; infection; febrile neutropenia; high cholesterol or triglycerides if responsive (to ≤grade 2) with statin treatment; weight gain; and hyperglycemia if responsive (to <grade 2) with dietary modification.

[1] = Cohort A1, neurotoxicity, one line per patient (PID)
[2] = Cohort A1, one line per patient (PID)

C[C@H]1Oc2cc(cnc2N)-c2c(nn(C)c2C#N)CN(C)C(=O)c2ccc(F)cc21 [Lorlatinib, (10R)-7-amino-12-fluoro-2,10,16-trimethyl-15-oxo-10,15,16,17-tetrahydro-2H-8,4-(metheno)pyrazolo[4,3-h][2,5,11]-benzoxadiazacyclotetradecine-3-carbonitrile]
patients developing grade 2 CNS effects (<18 years (cohorts A1 and B2), two of 33): 6%
patients requiring a dose reduction (<18 years, lorlatinib monotherapy): 9%
CNS DLT (CTCAE V4) (A1 (< 18 yrs), DL 5 (115 mg/m^2)): Grade 2 hallucination/insomnia
DLT (A1, DL5 (115 mg/m^2), course 1): YES
Toxicity reason for Dose reduction (A1, DL5 (115 mg/m^2), course 1): Grade 3 Diarrhea (lactose intolerance)
DLT (A1, DL5 (115 mg/m^2), course 3): Delayed DLT
Toxicity reason for Dose reduction (A1, DL5 (115 mg/m^2), course 3): Grade 2 Hallucination/insomnia^1
CNS DLT (CTCAE V4) (A2 (≥ 18 yrs), 100 mg): Grade 2 memory impairment
CNS DLT (CTCAE V4) (A2 (≥ 18 yrs), 150 mg): Grade 2-4 hallucinations, delusions, suicidal ideations; also recorded: Grade 3 agitation^g; also recorded: Grade 4 Mania
DLT (A2, 100 mg, course 3): Delayed DLT^2
Toxicity reason for Dose reduction (A2, 100 mg, course 3): Grade 3 Hyperglycemia
DLT (A2, 100 mg, course 7): Delayed DLT
Toxicity reason for Dose reduction (A2, 100 mg, course 7): Grade 2 Memory impairment
DLT (A2, 150 mg, course 2): YES
Toxicity reason for Dose reduction (A2, 150 mg, course 2): Grade 2-4 Delusions, psychosis, suicide attempt^3
DLT (A2, 150 mg, course 2 (second patient)): YES
Toxicity reason for Dose reduction (A2, 150 mg, course 3): Grade 2 Lower extremity edema^5
DLT (A2, 150 mg, course 4): Delayed DLT
Toxicity reason for Dose reduction (A2, 150 mg, course 4): Grade 2 Peripheral neuropathy/edema
Toxicity reason for Dose reduction (A2, 150 mg, course 5): Grade 2 Peripheral neuropathy^6
CNS DLT (CTCAE V4) (B2 (< 18yrs), DL 5 (115 mg/m^2)): Grade 2 anxiety, depression, somnolence, hypersomnia
DLT (B2, DL5 (115 mg/m^2), course 3): Delayed DLT
Toxicity reason for Dose reduction (B2, DL5 (115 mg/m^2), course 3): Grade 2 anxiety, depression, somnolence, hypersomnia
Patients with DLT in course 1 (Cohort A1, DL1 (45 mg/m^2)): 0
Patients with DLT in course 2 (Cohort A1, DL1 (45 mg/m^2)): 0
Patients with DLT in other courses (Cohort A1, DL1 (45 mg/m^2)): 0
Patients with DLT in course 1 (Cohort A1, DL2 (60 mg/m^2)): 0
Patients with DLT in course 2 (Cohort A1, DL2 (60 mg/m^2)): 0
Patients with DLT in other courses (Cohort A1, DL2 (60 mg/m^2)): 0
Patients with DLT in course 1 (Cohort A1, DL3 (75 mg/m^2)): 0
Patients with DLT in course 2 (Cohort A1, DL3 (75 mg/m^2)): 0
Patients with DLT in other courses (Cohort A1, DL3 (75 mg/m^2)): 0
Patients with DLT in course 1 (Cohort A1, DL4 (95 mg/m^2)): 0
Patients with DLT in course 2 (Cohort A1, DL4 (95 mg/m^2)): 0
Patients with DLT in other courses (Cohort A1, DL4 (95 mg/m^2)): 0
Patients with DLT in course 1 (Cohort A1, DL5 (115 mg/m^2)): 1^b
Patients with DLT in course 2 (Cohort A1, DL5 (115 mg/m^2)): 0
Patients with DLT in other courses (Cohort A1, DL5 (115 mg/m^2)): 1^b
Toxicity Maximum Grade per patient: Sinus tachycardia (Cohort A1, patient PID 9): 2
Toxicity Maximum Grade per patient: Sinus tachycardia (Cohort A1, patient PID 17): 1
Toxicity Maximum Grade per patient: Sinus tachycardia (Cohort A1, patient PID 18): 1
Toxicity Maximum Grade per patient: Neutrophil count decreased (Cohort A1, patient PID 21): 2
Toxicity Maximum Grade per patient: Neutrophil count decreased (Cohort A1, patient PID 31): 3
Amnesia (CNS effect) (Cohort A1, grade 1-4 in c1-c4): 0 (0)
Confusion (CNS effect) (Cohort A1, grade 1-4 in c1-c4): 0 (0)
Delirium (CNS effect) (Cohort A1, grade 1-4 in c1-c4): 0 (0)
Delusions (CNS effect) (Cohort A1, grade 1-4 in c1-c4): 0 (0)
Dysarthria (CNS effect) (Cohort A1, grade 1-4 in c1-c4): 0 (0)
Euphoria (CNS effect) (Cohort A1, grade 1-4 in c1-c4): 0 (0)
Hypersomnia (CNS effect) (Cohort A1, grade 1-4 in c1-c4): 0 (0)
Mania (CNS effect) (Cohort A1, grade 1-4 in c1-c4): 0 (0)
Paresthesia (CNS effect) (Cohort A1, grade 1-4 in c1-c4): 0 (0)
Restlessness (CNS effect) (Cohort A1, grade 1-4 in c1-c4): 0 (0)
Somnolence (CNS effect) (Cohort A1, grade 1-4 in c1-c4): 0 (0)
Stuttering (CNS effect) (Cohort A1, grade 1-4 in c1-c4): 0 (0)
Suicidal ideation (CNS effect) (Cohort A1, grade 1-4 in c1-c4): 0 (0)
Agitation: Toxicity Maximum Grade per patient [1]: 1
Anxiety: Toxicity Maximum Grade per patient [1]: 1
Cognitive disturbance: Toxicity Maximum Grade per patient [1]: 1
Concentration impairment: Toxicity Maximum Grade per patient [1]: 1
Depression: Toxicity Maximum Grade per patient [1]: 1
Hallucinations: Toxicity Maximum Grade per patient [1]: 2
Headache: Toxicity Maximum Grade per patient [1]: 1
Memory impairment: Toxicity Maximum Grade per patient [1]: 1
Alanine aminotransferase increased: Toxicity Maximum Grade per patient [2]: 1 and 2
Alkaline phosphatase increased: Toxicity Maximum Grade per patient [2]: 1 and 2
Anemia: Toxicity Maximum Grade per patient [2]: 2 and 1 and 3
Aspartate aminotransferase increased: Toxicity Maximum Grade per patient [2]: 1 and 3 and 2
Cholesterol high: Toxicity Maximum Grade per patient [2]: 2 and 1 and 3
Creatinine increased: Toxicity Maximum Grade per patient [2]: 1
Diarrhea: Toxicity Maximum Grade per patient [2]: 1 and 3
Edema limbs: Toxicity Maximum Grade per patient [2]: 1
Electrocardiogram QT corrected interval prolonged: Toxicity Maximum Grade per patient [2]: 1
Fatigue: Toxicity Maximum Grade per patient [2]: 1
Flatulence: Toxicity Maximum Grade per patient [2]: 2 and 1
Gastroesophageal reflux disease: Toxicity Maximum Grade per patient [2]: 2
Hyperglycemia: Toxicity Maximum Grade per patient [2]: 1 and 3
Hypertriglyceridemia: Toxicity Maximum Grade per patient [2]: 1 and 2 and 3
INCREASED APPETITE: Toxicity Maximum Grade per patient [2]: 1
Irritability: Toxicity Maximum Grade per patient [2]: 1
Lymphocyte count decreased: Toxicity Maximum Grade per patient [2]: 1 and 3
